Assay results taken from PMC7931627 (ACS Central Science, 2021).

Tests used:
SARS-CoV-2 M^pro = SARS-CoV-2 M^pro (Severe acute respiratory syndrome coronavirus 2, UniProt P0DTD1); test: biochemical; assay type: biochemical; conditions: for IC50: IC50, inhibition of SARS-CoV-2 Mpro, kinetic assay, 100 nM Mpro, triplicate, footnote a: fluorescence of compound interfered with assay
[1] = system: noninfectious SARS-CoV-2 replicon; assay type: cell-based; conditions: 5 in combination with remdesivir, MacSynergy II
infectious SARS-CoV-2 [2] = assay type: cell-based
infectious SARS-CoV-2 [3] = test: MTT antiviral assay: protection against viral cytopathic effect in Vero E6 cells; assay type: cell-based
Vero E6 cells = conditions: MTT, no virus
[4] = system: normal human bronchial epithelial cells (NHBE); conditions: MTT

Structure (SMILES)	IC50 (SARS-CoV-2 M^pro) [µM]	EC50 Plaque (infectious SARS-CoV-2 [2])	EC50 MTT (infectious SARS-CoV-2 [3])	further results
N#Cc1ccccc1-c1cc(-c2cccc(Cl)c2)c(=O)n(-c2cccnc2)c1 [Compound 2]	9.99 ± 2.5	–	–	–
O=c1[nH]cc(-c2cc(-c3cccc(Cl)c3)c(=O)n(-c3cccnc3)c2)c(=O)[nH]1 [Compound 3]	6.38 ± 1.21	–	–	–
N#Cc1ccccc1-c1cc(-c2cc(Cl)cc(Cl)c2)c(=O)n(-c2cccnc2)c1 [Compound 4]	4.02 ± 1.36	–	–	factor of enhancement in inhibitory activity (SARS-CoV-2 M^pro; 4 vs 2, addition of second chlorine): ~2
CCCOc1cc(Cl)cc(-c2cc(-c3ccccc3C#N)cn(-c3cccnc3)c2=O)c1 [Compound 5]	–	–	–	factor of improvement in potency (SARS-CoV-2 M^pro; 5 over 4): ca. 30; antagonism volume [1]: 0 μM^2%; mean synergy volume [1]: 30.8 μM^2%
O=c1[nH]cc(-c2cc(-c3cc(Cl)cc(OCc4ccccc4)c3)c(=O)n(-c3cccnc3)c2)c(=O)[nH]1 [Compound 14]	–	antiviral activity was found	not in the MTT assay	–
O=c1[nH]cc(-c2cc(-c3cc(Cl)cc(OCc4ccccc4Cl)c3)c(=O)n(-c3cccnc3)c2)c(=O)[nH]1 [Compound 21]	–	showed activity	lacked antiviral activity	–
O=c1[nH]cc(-c2cc(-c3cc(Cl)c(F)c(OCc4ccccc4Cl)c3)c(=O)n(-c3cccnc3)c2)c(=O)[nH]1 [Compound 23]	–	showed activity	lacked antiviral activity	–
O=c1[nH]cc(-c2cc(-c3cc(Cl)cc(OCC4CC4)c3)c(=O)n(-c3cccnc3)c2)c(=O)[nH]1 [Compound 24]	–	–	–	fold boost in potency (SARS-CoV-2 M^pro; 24 vs 11, uracil series): 3
N#Cc1ccccc1-c1cc(-c2cc(Cl)cc(OCC3CC3)c2)c(=O)n(-c2cccnc2)c1 [Compound 26]	–	–	–	CC50 Vero E6 (Vero E6 cells): no cytotoxicity; CC50 NHBE [4]: no cytotoxicity
